According to US20230382911A1 (Hoffmann-La Roche Inc., priority 2021, published 2023):

Target: Recombinant human Mat2a (Homo sapiens (Human), UniProt P31153)
Test: Determination of Mat2A activity: 384 well format absorbance-based Mat2A inhibition assay
Type: biochemical
Details: 12.5 nM Mat2A, 100 μM ATP and Methionine, 2% DMSO, 120 minutes at RT, Biomol Green, absorbance at 635 nm
Protocol: Determination of Mat2A Activity
Measurement of Mat2A inhibition is performed in 384 well format absorbance-based assay.
Recombinant human Mat2a (12.5 nM) and serial diluted compounds in DMSO (range of concentrations from 10 μM to […]) or controls (DMSO) are incubated for 15 minutes at room temperature (RT) in assay buffer containing 50 mM HEPES pH 7.5, 50 mM KCl, 50 mM MgCl2, 0.01% Tween 20 and 10 mM DTT. The reaction is initiated by the addition of the combined substrates ATP and Methionine, each at a final concentration of 100 μM. Final assay condition are 12.5 nM Mat2A, 100 μM ATP and Methionine Substrates and 2% DMSO. After 120 minutes of incubation at RT, the reaction is stopped by the addition of Biomol Green. The absorbance signal is measured at λ=635 nm with a multiplate reader (BMG Pherastar reader or equivalent) after 30 min of equilibration at RT.

Chain of Recombinant human Mat2a (P31153 whole entry): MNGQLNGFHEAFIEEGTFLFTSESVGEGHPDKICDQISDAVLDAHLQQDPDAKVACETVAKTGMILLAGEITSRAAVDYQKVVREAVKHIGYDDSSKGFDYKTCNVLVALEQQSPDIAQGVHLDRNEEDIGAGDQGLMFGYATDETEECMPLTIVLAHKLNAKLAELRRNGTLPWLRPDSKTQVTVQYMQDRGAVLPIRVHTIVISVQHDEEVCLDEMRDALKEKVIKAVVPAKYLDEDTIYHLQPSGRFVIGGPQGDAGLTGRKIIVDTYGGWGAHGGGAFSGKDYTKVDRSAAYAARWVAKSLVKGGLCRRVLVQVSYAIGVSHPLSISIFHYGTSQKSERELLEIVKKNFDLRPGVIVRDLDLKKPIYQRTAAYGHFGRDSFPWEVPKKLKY

| SMILES | IC50 [nM] |
| --- | --- |
| COc1ncccc1C(=O)n1nc(N)c2ccc(C3CC3)nc21 [Example 75, (3-amino-6-cyclopropyl-1H-pyrazolo[3,4-b]pyridin-1-yl)(2-methoxypyridin-3-yl)methanone] | 26 |
| Cc1nnccc1C(=O)n1nc(N)c2ccc(C3CC3)nc21 [Example 78, (3-amino-6-cyclopropyl-1H-pyrazolo[3,4-b]pyridin-1-yl)(3-methylpyridazin-4-yl)methanone] | 200 |
| Cc1nscc1C(=O)n1nc(N)c2ccc(C3CC3)nc21 [Example 79, (3-amino-6-cyclopropyl-1H-pyrazolo[3,4-b]pyridin-1-yl)(3-methylisothiazol-4-yl)methanone] | 150 |

Further lines, results first:

| IC50 [nM] | SMILES |
| --- | --- |
| 17 | Nc1nn(C(=O)c2cccnc2Cl)c2nc(C3CC3)ccc12 [Example 76, (3-amino-6-cyclopropyl-1H-pyrazolo[3,4-b]pyridin-1-yl)(2-chloropyridin-3-yl)methanone] |
| 31 | Nc1nn(C(=O)c2cccnc2C(F)(F)F)c2nc(C3CC3)ccc12 [Example 77, (3-amino-6-cyclopropyl-1H-pyrazolo[3,4-b]pyridin-1-yl)(2-(trifluoromethyl)pyridin-3-yl)methanone] |
